Reference: patent US20230190697A1, “METHODS FOR TREATING VIRAL INFECTIONS WITH NAFAMOSTAT” (priority 2020, published 2023)
Several values for one entry are separate records, joined by “and”; a condition that tells them apart may be missing. Identical values can stand only once.

Legend:
[1] = Pharmacokinetics of oral nafamostat mesylate solution in healthy male and female subjects; format: in vivo, human; conditions: human, oral, 200 mg dose level, individual subjects
Protocol: Part 1: Single Ascending Dose Study. Male and female subjects aged 18 - 70 were administered a single dose of 50 mg nafamostat mesylate on day 1, 100 mg nafamostat mesylate on day 3 or 4, and 200 mg nafamostat mesylate on day 5, 6, or 7. Nafamostat mesylate was administered in the form of an oral solution. […]
Part 2: Multiple Ascending Dose Study. Subjects were divided into 2 cohorts. Cohort 1 received an oral solution of 100 mg/mL nafamostat mesylate twice a day for 5 days with pharmacokinetic evaluations on each day. […] Safety evaluations continued for 48 hours after the last dose. After review and evidence of safety, Cohort 2 received an oral solution of 200 mg/mL nafamostat mesylate twice a day for 5 days with pharmacokinetic evaluations on each day. […] Safety evaluations continued for 48 hours after the last dose.
Part 3: Single Fixed Dose Administered Twice Daily for 5 Days. Six subjects, different than the subjects from Parts 1 and 2, received an oral solution of 200 mg/mL nafamostat mesylate twice a day for 5 days. Blood samples were obtained at pre-dose (0 hr.) and at 0.5, 1, 2, 3, 4, 6, and 8 hours after the first dose on Day 1 and again after the first dose on Day 5. […]
Oral solutions received by each subject were prepared by dissolving nafamostat mesylate in about 100 mL of EMETROL®/water and provided at a volume to deliver the indicated dosage. There was no placebo formulation.
Nafamostat pharmacokinetics was evaluated at the 200 mg dose levels.

SD rats [2] = assay: Pilot repeat-dose oral study in male SD rats (5 days); format: in vivo; conditions: 1000 mg/kg/day PO for 5 days
Protocol: A pilot, non-GLP repeat-dose study was performed in which nafamostat mesylate (500 or 1000 mg/kg/day PO) was administered to 6 male SD rats per group for 5 days. […] One animal had petechiae on the lower third of the colon. […] Death in 2 of the animals followed seizure activity at about 1 h post-dose.

hERG K+ channel = hERG K+ channel (Homo sapiens, UniProt Q12809); assay: cell-based; conditions: human, 50 µM
Sequence of hERG K+ channel (Q12809 whole entry): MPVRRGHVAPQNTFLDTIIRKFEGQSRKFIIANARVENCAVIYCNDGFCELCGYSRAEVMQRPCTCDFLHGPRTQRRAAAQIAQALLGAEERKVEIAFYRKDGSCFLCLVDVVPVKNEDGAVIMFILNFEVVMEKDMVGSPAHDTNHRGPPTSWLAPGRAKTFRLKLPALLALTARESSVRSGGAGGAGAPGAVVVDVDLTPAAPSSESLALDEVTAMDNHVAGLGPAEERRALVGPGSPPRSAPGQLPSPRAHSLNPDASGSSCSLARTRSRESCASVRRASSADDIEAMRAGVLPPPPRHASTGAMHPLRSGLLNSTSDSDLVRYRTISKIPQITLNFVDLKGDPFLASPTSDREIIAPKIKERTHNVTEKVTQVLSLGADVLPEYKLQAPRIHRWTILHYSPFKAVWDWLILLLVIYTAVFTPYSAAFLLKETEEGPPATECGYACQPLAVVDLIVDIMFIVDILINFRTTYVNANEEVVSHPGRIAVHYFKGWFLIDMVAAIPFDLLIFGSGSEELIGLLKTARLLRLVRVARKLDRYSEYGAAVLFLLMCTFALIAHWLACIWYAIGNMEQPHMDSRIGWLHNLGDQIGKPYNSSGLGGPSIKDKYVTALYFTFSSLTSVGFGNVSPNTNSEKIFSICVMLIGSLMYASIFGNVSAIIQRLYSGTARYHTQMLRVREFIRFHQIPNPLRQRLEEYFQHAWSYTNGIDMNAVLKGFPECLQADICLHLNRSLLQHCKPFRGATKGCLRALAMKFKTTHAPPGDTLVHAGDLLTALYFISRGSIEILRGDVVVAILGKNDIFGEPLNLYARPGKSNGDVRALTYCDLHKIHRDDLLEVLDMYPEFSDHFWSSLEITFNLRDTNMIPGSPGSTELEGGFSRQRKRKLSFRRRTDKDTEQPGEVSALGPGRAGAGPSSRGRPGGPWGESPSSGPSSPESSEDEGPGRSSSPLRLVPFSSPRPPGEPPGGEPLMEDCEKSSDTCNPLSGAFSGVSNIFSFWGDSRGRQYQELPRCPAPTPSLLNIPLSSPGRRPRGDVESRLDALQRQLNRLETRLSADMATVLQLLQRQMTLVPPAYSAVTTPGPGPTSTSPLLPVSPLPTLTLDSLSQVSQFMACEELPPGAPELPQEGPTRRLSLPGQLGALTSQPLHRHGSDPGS
Protocol: Effects of nafamostat in an hERG assay: In an in vitro non-GLP screening study, effects of nafamostat on the hERG K^+ channel currents were evaluated in voltage-clamped human embryonic kidney cells at room temperature. […] A full ICH-Compliant hERG study and in vivo cardiovascular safety pharmacology study is be performed as part of the IND-enabling program.

SD rats [3] = assay: Single dose oral tolerability in SD rats (dose range-finding); format: in vivo
Description: Oral Tolerability in Rats: The single dose tolerability to oral nafamostat was studied in SD rats in a non-GLP pilot dose range-finding study. […] All other animals survived to 7 days and had no abnormalities at necropsy.

Compound: CS(=O)(=O)O.CS(=O)(=O)O.N=C(N)Nc1ccc(C(=O)Oc2ccc3cc(C(=N)N)ccc3c2)cc1 [nafamostat mesylate, 6-amidino-2-naphthyl p-guanidinobenzoate dimethanesulfonate]
- concentration at 8 h ([1]; both sexes, blood, Day 1, 8 h post-dose): < 0.1 ng/mL
- concentration at 12 h ([1]; both sexes, blood, Day 1, 12 h post-dose): < 0.1 ng/mL
- NM ([1]; Day 1, 0 h post-dose): < 0.100 ng/mL
- NM ([1]; Day 1, 0.5 h post-dose): < 0.100 ng/mL
- NM ([1]; Day 1, 1 h post-dose, listed as NM, dimethanesulfonate): < 0.100 ng/mL (4×) and 0.125 ng/mL
- NM ([1]; Day 1, 2 h post-dose): < 0.100 ng/mL
- NM ([1]; Day 1, 3 h post-dose): < 0.100 ng/mL
- NM ([1]; Day 1, 4 h post-dose): < 0.100 ng/mL
- NM ([1]; Day 1, 6 h post-dose): < 0.100 ng/mL
- NM ([1]; Day 1, 8 h post-dose): < 0.100 ng/mL
- NM ([1]; Day 1, 12 h post-dose): < 0.100 ng/mL
- NM ([1]; Day 2, 0 h post-dose): < 0.100 ng/mL
- NM ([1]; Day 2, 0.5 h post-dose): < 0.100 ng/mL
- NM ([1]; Day 2, 1 h post-dose): < 0.100 ng/mL
- NM ([1]; Day 2, 2 h post-dose): < 0.100 ng/mL
- NM ([1]; Day 2, 3 h post-dose): < 0.100 ng/mL
- NM ([1]; Day 2, 4 h post-dose): < 0.100 ng/mL
- NM ([1]; Day 2, 6 h post-dose): < 0.100 ng/mL
- NM ([1]; Day 2, 8 h post-dose): < 0.100 ng/mL
- NM ([1]; Day 2, 12 h post-dose): < 0.100 ng/mL
- NM ([1]; Day 2, 16 h post-dose): < 0.100 ng/mL
- NM ([1]; Day 3, 0 h post-dose): < 0.100 ng/mL
- NM ([1]; Day 3, 4 h post-dose, listed as NM, dimethanesulfonate): < 0.100 ng/mL (2×) and 0.101 ng/mL
- NM ([1]; Day 3, 8 h post-dose): < 0.100 ng/mL
- NM ([1]; Day 3, 12 h post-dose): < 0.100 ng/mL
- NM ([1]; Day 3, 16 h post-dose): < 0.100 ng/mL
- NM ([1]; Day 4, 0 h post-dose, listed as NM, dimethanesulfonate): < 0.100 ng/mL
- NM ([1]; Day 4, 4 h post-dose): < 0.100 ng/mL
- necropsy finding in animals that died (SD rats [2]): fluid filled stomach at necropsy
- mortality (SD rats [2]; 6 male SD rats): Four of 6 animals receiving 1000 mg/kg/day died by day 5
- inhibition of hERG potassium currents (hERG K+ channel): approximately 24%
- mortality (SD rats [3]; 1000 mg/kg female dose group, stomach perforations at necropsy indicate dosing misadministration): 2 of 3 animals died at 48 hours
- single dose oral tolerability (SD rats [3]; both, SD, rat, in vivo, po, 7 days): ≥ 1000 mg/kg
